# Target: T1, bond between rTRX and rMIF (Homo sapiens, UniProt P10599)
# T1 construct: His tag; made in house; host or cells: Escherichia coli
# T1 sequence (P10599 1-105): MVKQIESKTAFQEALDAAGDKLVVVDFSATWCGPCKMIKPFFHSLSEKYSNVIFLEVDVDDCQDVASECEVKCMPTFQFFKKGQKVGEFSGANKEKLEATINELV
# Assay: Screening by molecular interaction analysis (Biacore, SPR) for test substances that strengthen the bond between TRX and MIF
# Assay type: binding
# Details: test substance 500 µM mixed with rTRX 5 µM (Prostaglandin 12 also at 5 µM); FIGS. 7 to 11
# Experimental: For several test substances, it was confirmed with a molecular interaction analysis whether they strengthened the bond between TRX and MIF or not.
# rTRX; (same as the rTRX of Example 5) rMIF; (same as the rMIF of Example 5) BIAcore2000; (CM5 sensor chip)
# N-acetylglucosamine Nitrosoglutathione Prostaglandin 12
# rMIF was immobilized in a CM5 sensor chip as a ligand. The ligand was adjusted to have the rMIF concentration of less or equal to 200 nM by using running buffer, 10 mM HEPES (pH7.4), 150 mM NaCl, 3 mM EDTA and 0.005% Tween 20.
# Then, N-acetylglucosamine, Nitrosoglutathione and Prostaglandin 12 were mixed with rTRX, respectively, to form three types of analytes.
# In each analyte, the concentration of rTRX was 5 µM and the concentration of the test substance was 500 µM. For Prostaglandin 12, the analyte having its concentration of 5 µM was also analyzed.
substance,measurement,value
Prostaglandin 12,effect on the bond between rTRX and rMIF,remarkably strengthen the bond between rTRX and rMIF
